Experimental data from PMC12669278, “VDAC1-interacting proteins: binding site mapping and their derived peptides induce apoptosis and multifaceted cellular effects” (Apoptosis, 2025).
Like-named read-outs stand apart in the source and are kept apart here. No end group written: not given here.

Key:
purified VDAC1 [1] = target: T1, purified VDAC1 (Homo sapiens, UniProt P21796); experiment: Microscale thermophoresis (MST); type: binding
Experimental: MST analysis was performed using a NanoTemper Monolith NT.115 apparatus as described previously. Briefly, purified VDAC1 was fluorescently labeled using a NanoTemper Protein labeling kit BLUE (L001, NanoTemper Technologies, Munich, Germany). A constant concentration of the protein (66 nM) was incubated with different concentrations of the indicated peptide in MST binding buffer (10 mM tricine-HCl, 100 mM NaCl, pH = 7.4) for 30 min at 37 °C in the dark. Afterwards, 3–5 µl of the samples were loaded into a monolith glass capillary (NanoTemper) and a thermophoresis analysis was performed (LED 80%, IR laser 80%).

purified VDAC1 [2] = target: T1, purified VDAC1; experiment: Glass-bound peptide array probed with purified VDAC1 and anti-VDAC1 antibodies; type: binding; design: key: +: low; ++: medium; +++: high; details: glass-bound peptide array incubated 4 h with purified VDAC1 (64 nM), chemiluminescence; for Spot intensity, detected using anti-N-terminus VDAC1: antibody against VDAC1 N-terminus; for Spot intensity, detected using anti-VDAC1 internal sequence: antibody against VDAC1 amino acids 150-250
Experimental: A customized peptide array was produced by INTAVIS Peptide Services (GmbH & Co. KG, Tübingen, Germany). It comprised 768 peptide sequences derived from 19 VDAC1-interacting proteins that were arrayed on a glass slide. Each peptide was composed of 25 amino acids with an overlap of 15 amino acids with the peptides before and following it.
The interaction of purified VDAC1 with glass-bound peptide arrays was assessed by washing the slide three times, 10 min each, with TBST (150 mM NaCl, 50 mM Tris/HCl, pH 7.4, 0.1% Tween-20), followed by overnight incubation with blocking buffer (TBS, pH 7.8, containing low-fat dry milk, 2.5%, w/v) at 4 °C. Then slides were incubated with purified VDAC1 in protein-interacting buffer (20 mM HEPES, 100 mM KCl, pH,7.4, PBS) for 4 h at room temperature (RT). After washing, with TBST, slides were incubated overnight at 4 °C with anti-VDAC1 antibody against a sequence of 150–250 amino acids or against the VDAC1-N-terminus. Slides were then washed with TBST, followed by the appropriate secondary anti-HRP conjugated antibody for 2 h at RT. They were washed again with TBST and developed using enhanced chemiluminescence EZ-ECL (Biological Industries), according to the manufacturer’s instructions. The signal was captured in the dark using FUSION-FX (Vilber Lourmat) software.

T1 sequence (P21796 whole entry, species assumed): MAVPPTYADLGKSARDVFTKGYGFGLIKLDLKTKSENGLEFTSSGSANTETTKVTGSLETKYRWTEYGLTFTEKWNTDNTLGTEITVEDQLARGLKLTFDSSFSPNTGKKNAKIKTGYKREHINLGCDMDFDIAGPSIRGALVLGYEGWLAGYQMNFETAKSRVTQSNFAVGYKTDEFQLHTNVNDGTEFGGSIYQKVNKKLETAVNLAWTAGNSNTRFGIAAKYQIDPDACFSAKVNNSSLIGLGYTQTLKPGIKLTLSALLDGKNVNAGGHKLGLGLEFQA

Sequence: MVVEHPEFLKAGKEPGLQIWRVEKFRQIKIWFQNRRMKWKK [2G8-Antp]
- Kd (purified VDAC1 [1]): 5 µM

Sequence: NEFGYSNRVVDLMAHMASKE [2D1]
- Kd (purified VDAC1 [1]; fluorescently labeled VDAC1 66 nM, peptide 2.5-30 µM, 30 min at 37 °C, read-out: Kd): 8 µM

Sequence: QVSVLPEGGETPLFKQFFKNWRDPD [2H20, array peptide from gelsolin isoform b]
- Spot intensity, detected using anti-N-terminus VDAC1 (purified VDAC1 [2]): ++

Sequence: RAVQHREVQGFESATFLGYFKSGLK [2G18, array peptide from gelsolin isoform b]
- Spot intensity, detected using anti-N-terminus VDAC1 (purified VDAC1 [2]): +

Sequence: RERLLGWIQDQGGWGLPLAESLKRL [1B12, array peptide from BAX]
- Spot intensity, detected using anti-N-terminus VDAC1 (purified VDAC1 [2]): +++
- Spot intensity, detected using anti-VDAC1 internal sequence (purified VDAC1 [2]): +

Sequence: RGPTAARHQDSWNGLSHEAFRLVSR [2M21, array peptide from HSP-70]
- Spot intensity, detected using anti-N-terminus VDAC1 (purified VDAC1 [2]): +

Sequence: RVVALFYFASKLVLKALCTKVPELI [1B8, array peptide from BAX]
- Spot intensity, detected using anti-N-terminus VDAC1 (purified VDAC1 [2]): ++

Sequence: RYGRELRRMSDEFVDSFKKGLPRPK [1A13, array peptide from BAD]
- Spot intensity, detected using anti-N-terminus VDAC1 (purified VDAC1 [2]): +

Sequence: SILEIQKGVFEVKSTNGDTFLGGED [2N23, array peptide from HSP-70]
- Spot intensity, detected using anti-N-terminus VDAC1 (purified VDAC1 [2]): +++
- Spot intensity, detected using anti-VDAC1 internal sequence (purified VDAC1 [2]): +++

Sequence: SKLVLKALCTKVPELIRTIMGWTLD [1B9, array peptide from BAX]
- Spot intensity, detected using anti-N-terminus VDAC1 (purified VDAC1 [2]): +

Sequence: SNTTAIAEAWARLDHKFDLMYAKRA [2B6, array peptide from tubulin alpha 1b]
- Spot intensity, detected using anti-N-terminus VDAC1 (purified VDAC1 [2]): ++

Sequence: SPFRGRSRSAPPNLWAAQRYGRELR [1A11, array peptide from BAD]
- Spot intensity, detected using anti-N-terminus VDAC1 (purified VDAC1 [2]): +

Sequence: SPPSTLTPDSRRVARPPPIGAEVPD [2D11, array peptide from Mcl-1]
- Spot intensity, detected using anti-N-terminus VDAC1 (purified VDAC1 [2]): +

Sequence: SSWTRVFQSWWDRNLGRGSSAPSQ [1A17, array peptide from BAD]
- Spot intensity, detected using anti-N-terminus VDAC1 (purified VDAC1 [2]): +

Sequence: STRIQQQLGQLTLENLQMLPESEDE [2G1]
- Spot intensity, detected using anti-N-terminus VDAC1 (purified VDAC1 [2]): ++

Sequence: SVKRVTQDPKLQMGKKLPLHLTLPQ [1N4, array peptide from CD4]
- Spot intensity, detected using anti-N-terminus VDAC1 (purified VDAC1 [2]): ++

Sequence: TAFQGMLRKLDIKNEDDVKSLSRVM [2E5, array peptide from Mcl-1]
- Spot intensity, detected using anti-N-terminus VDAC1 (purified VDAC1 [2]): +

Sequence: TDVLLLDVTPLSLGIETLGGVFTKL [2O19, array peptide from HSP-70]
- Spot intensity, detected using anti-N-terminus VDAC1 (purified VDAC1 [2]): ++
- Spot intensity, detected using anti-VDAC1 internal sequence (purified VDAC1 [2]): +

Sequence: TEDELPYDDCVFGGQRLTL [2G6]
- Spot intensity, detected using anti-N-terminus VDAC1 (purified VDAC1 [2]): +

Sequence: TGSGFTSLLMERLSVDYGKKSKLEF [2A4, array peptide from tubulin alpha 1b]
- Spot intensity, detected using anti-N-terminus VDAC1 (purified VDAC1 [2]): +
- Spot intensity, detected using anti-VDAC1 internal sequence (purified VDAC1 [2]): +

Sequence: TKVPELIRTIMGWTLDFLRERLLGW [1B10, array peptide from BAX]
- Spot intensity, detected using anti-N-terminus VDAC1 (purified VDAC1 [2]): +++

Sequence: TPPPAEEEEDELYRQSLEIISRYLR [2D22, array peptide from Mcl-1]
- Spot intensity, detected using anti-N-terminus VDAC1 (purified VDAC1 [2]): ++

Sequence: TPVQSRVVQGKEPAHLMSLFGGKPM [2I12, array peptide from gelsolin isoform b]
- Spot intensity, detected using anti-N-terminus VDAC1 (purified VDAC1 [2]): +

Sequence: TVPTPHLDGKHVVFGQVIKGIGVAR [1I7, array peptide from cyclophilin D]
- Spot intensity, detected using anti-N-terminus VDAC1 (purified VDAC1 [2]): +

Sequence: VDCIVRIPKEQGVLSFWRGNLANVI [1F18, array peptide from ANT3]
- Spot intensity, detected using anti-N-terminus VDAC1 (purified VDAC1 [2]): ++

Sequence: VGKSGTEREFRGLGDCLVKITKSDG [1G4, array peptide from ANT3]
- Spot intensity, detected using anti-N-terminus VDAC1 (purified VDAC1 [2]): +++

Sequence: VGKVIPELNGKLTGMAFRVPTANVS [2C14, array peptide from GAPDH1]
- Spot intensity, detected using anti-N-terminus VDAC1 (purified VDAC1 [2]): +++

Sequence: VSSITASLRFDGALNVDLTEFQTNL [2A14, array peptide from tubulin alpha 1b]
- Spot intensity, detected using anti-N-terminus VDAC1 (purified VDAC1 [2]): +
- Spot intensity, detected using anti-VDAC1 internal sequence (purified VDAC1 [2]): +++

Sequence: YKGGTSREGGQTAPASTRLFQVRAN [2I15, array peptide from gelsolin isoform b]
- Spot intensity, detected using anti-N-terminus VDAC1 (purified VDAC1 [2]): +

Sequence: YKSEGTFGIHVAENPSIQLLEGNPG [1L13, array peptide from MAVS]
- Spot intensity, detected using anti-VDAC1 internal sequence (purified VDAC1 [2]): ++

Sequence: YQVSPLAARLLYPYLAWLAFTTTLN [1H11, array peptide from TSPO]
- Spot intensity, detected using anti-VDAC1 internal sequence (purified VDAC1 [2]): +
